Where two headings read alike, the source gives them in different places.
Conditions: 1 month, glass bottle, product of Example 4
Description: The solid state stability of the drug substance was determined by storing approximately 1.0 g of the material in a glass bottle at i) 40° C./75% Relative Humidity (RH), open exposure, for 1 month and b) at 50° C., closed, for 1 month. The material was assayed by HPLC for final content and degradation products in both cases.

[1] = 40° C./75% Relative Humidity, open exposure

CN(CCOc1ccc(CC2SC(=O)NC2=O)cc1)c1ccccn1.O=C(O)C(O)C(O)C(=O)O (stereo not drawn) [D(−) Tartrate, 5-[4-[2-(N-methyl-N-(2-pyridyl)amino)ethoxy]benzyl]thiazolidine-2,4-dione, D(−) tartrate salt]
Solid state stability: HPLC assay [1]: 96 % initial | Solid state stability: degradation observed [1]: No significant degradation observed | Solid state stability: HPLC assay (50° C., closed): 98 % initial | Solid state stability: degradation observed (50° C., closed): No significant degradation observed

From patent publication US20040048899A1, “Tartrate salts of thiazollidnedione derivative” (priority 2000, published 2004)
